The values below come from US11104703B2, “Binding compound and uses thereof” (priority 2016, dated 2021).

Numbered stars: 1 amine (or outer) side, 2 acyl side, 3 side chain; on linkers, the order of the positions; unused ones are H or OH. Square brackets hold non-standard residues; d marks the D form. Side chains are listed from the residue outwards. Peptide text beside a SMILES is read from it. * marks the point of attachment. Biotin = O=C1N[C@H]2[C@H](CS[C@H]2CCCCC(=O)*)N1; Gly(N-(CH2)3-guanidino) = N=C(N)NCCCNCC(=O)O; Glutaryl = O=C(CCCC(=O)[*:2])[*:1]; X2 = O=C(Oc1c(F)c(F)c(F)c(F)c1F)*; X1 = O=C1CCC(=O)N1OC(=O)*; X3 = C#Cc1cccc(N*)c1; Ahx = NCCCCCC(=O)O

Experiment [1] relates to primary human airway epithelial (HAE) cell cultures. The conditions noted are these: 10 μM, Boc-QAR-AMC 50 μM, 37° C.
Method: (§1) Inhibition of endogenous protease activities in CF sputum sol, was conducted as for Example 8 but in the presence of Boc-Gln-Ala-Arg-AMC (50 μM) as substrate. The rate of hydrolysis of the substrate at 37° C. was monitored and residual activity determined.
The target in experiment [2] is Human Airways Trypsin-like protease (HAT) (Homo sapiens, UniProt O60235). The conditions noted are these: for k3/Ki: Mean (±SD); for k3: mean.
Method: (§2) The ability of compounds of the invention to inhibit the activities of a range of commercially sourced proteases was assessed using steady state fluorogenic substrate assays. […] Assays were carried out in PBS, pH 7.4, at 37° C., in the presence of varying concentrations of inhibitor (10-50 μM) and a fixed concentration of substrate (50 μM). […] In this mechanism, the inhibitor I, binds the target protease to form an initial reversible complex EI, characterised by the inhibitor constant Ki. This is followed by the formation of an irreversible complex E-I from EI, characterised by the first-order rate constant k3.
Experiment [3] has as its system endogenous protease activities in CF sputum sol. The conditions noted are these: CF sputum sol from 8 individual CF patients; Boc-Gln-Ala-Arg-AMC 50 μM.
Method: as §1
For the next experiment, the target named is Matriptase (Homo sapiens, UniProt Q9Y5Y6). The conditions noted are these: for k3/Ki: Mean (±SD); for k3: mean.
The next experiment has as its system Trypsin. Particulars: for k3 / k3/Ki / Ki: Trypsin; for k3: first-order rate constant, mean; for k3/Ki: overall second-order rate constant; for k3/Ki / Ki: Mean (±SD); for Ki: PBS pH 7.4, 37° C., Cbz-Gly-Gly-Arg-NHMec 50 μM; for over all second-order rate constant: trypsin.
For the next experiment, the target named is Plasmin (Homo sapiens, UniProt P00747). Briefly: Steady state fluorogenic substrate assay, inactivation of plasmin.
For another experiment, the system named is Chymotrypsin. Briefly: Steady state fluorogenic substrate assay, inactivation of chymotrypsin. Particulars: for k3: mean; for second-order rate constant: chymotrypsin.
In a further experiment the target is Thrombin (Homo sapiens, UniProt P00734).
The next experiment deals with ENaC. It is filed as cell-based.
Experiment [4] relates to primary CF Airway Epithelial Cells (AECs). The conditions noted are these: 50 μM, 24 hours, n=3, vehicle control 3.5.
Method: Mucociliary clearance was quantified by measuring the velocity of microbeads apically applied to differentiated primary CF Airway Epithelial Cells (AECs). Compounds (50 μM) were added to the apical surface of primary CF AECs for a period of 24 hours. Mucociliary flow was then determined by tracking and measuring the velocity of apically applied microbeads across the CF AEC surface.
For experiment [5], the system named is trypsin-like serine proteases in CF Sol. Particulars: 10 μM; pooled CF sputum sol diluted ×4; substrate Cbz-Gly-Gly-Arg-AMC; 37° C.
Method: Briefly, the spectrofluorimetic analysis was conducted on a sample of pooled supernatant recovered by centrifugation from expectorated cystic fibrosis sputum, which had been diluted ×4 with phosphate-buffered saline (sputum sol). […] The rate of hydrolysis of the substrate at 37° C. was monitored and inhibition as a % of an untreated control calculated.

Plasmin, sequence (P00747 97-810, species assumed): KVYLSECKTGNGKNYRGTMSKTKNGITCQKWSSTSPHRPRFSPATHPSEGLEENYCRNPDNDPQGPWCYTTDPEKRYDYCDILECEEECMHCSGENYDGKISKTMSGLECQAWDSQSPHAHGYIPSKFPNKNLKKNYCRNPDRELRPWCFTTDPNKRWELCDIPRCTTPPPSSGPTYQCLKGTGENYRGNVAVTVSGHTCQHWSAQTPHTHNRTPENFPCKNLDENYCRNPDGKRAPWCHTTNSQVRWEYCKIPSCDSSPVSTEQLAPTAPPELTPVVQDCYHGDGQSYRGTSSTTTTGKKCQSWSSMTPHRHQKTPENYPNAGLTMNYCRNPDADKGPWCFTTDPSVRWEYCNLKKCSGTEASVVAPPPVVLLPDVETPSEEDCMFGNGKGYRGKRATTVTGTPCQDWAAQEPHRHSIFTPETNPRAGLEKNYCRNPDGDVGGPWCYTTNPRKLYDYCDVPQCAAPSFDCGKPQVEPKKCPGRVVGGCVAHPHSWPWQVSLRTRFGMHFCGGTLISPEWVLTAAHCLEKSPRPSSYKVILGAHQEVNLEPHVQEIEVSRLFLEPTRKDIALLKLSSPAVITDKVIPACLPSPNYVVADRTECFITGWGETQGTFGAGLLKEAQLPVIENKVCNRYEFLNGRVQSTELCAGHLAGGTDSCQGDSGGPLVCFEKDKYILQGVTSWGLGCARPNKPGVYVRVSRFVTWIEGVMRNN
Matriptase, sequence (Q9Y5Y6 whole entry, species assumed): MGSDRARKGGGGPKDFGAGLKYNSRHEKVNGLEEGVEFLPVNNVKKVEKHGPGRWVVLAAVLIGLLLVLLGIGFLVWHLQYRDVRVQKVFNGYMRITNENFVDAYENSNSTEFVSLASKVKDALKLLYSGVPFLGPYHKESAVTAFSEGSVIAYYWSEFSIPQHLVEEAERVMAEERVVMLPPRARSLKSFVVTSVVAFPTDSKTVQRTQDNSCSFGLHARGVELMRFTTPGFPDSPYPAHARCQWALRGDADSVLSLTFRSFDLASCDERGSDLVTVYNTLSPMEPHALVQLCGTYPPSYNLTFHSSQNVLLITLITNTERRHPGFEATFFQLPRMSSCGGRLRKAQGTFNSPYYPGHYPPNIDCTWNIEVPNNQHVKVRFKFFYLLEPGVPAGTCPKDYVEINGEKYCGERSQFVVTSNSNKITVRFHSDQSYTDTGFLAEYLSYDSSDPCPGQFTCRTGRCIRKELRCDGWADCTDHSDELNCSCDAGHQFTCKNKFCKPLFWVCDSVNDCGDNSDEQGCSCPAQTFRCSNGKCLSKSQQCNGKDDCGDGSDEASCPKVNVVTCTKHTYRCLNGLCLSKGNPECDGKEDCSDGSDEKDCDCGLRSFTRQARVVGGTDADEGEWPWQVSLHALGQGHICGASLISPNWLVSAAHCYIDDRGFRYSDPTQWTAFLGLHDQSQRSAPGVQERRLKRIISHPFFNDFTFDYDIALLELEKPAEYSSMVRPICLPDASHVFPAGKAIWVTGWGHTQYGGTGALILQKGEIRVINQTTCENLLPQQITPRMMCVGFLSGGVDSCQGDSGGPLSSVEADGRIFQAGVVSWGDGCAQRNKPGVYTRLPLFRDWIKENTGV
Human Airways Trypsin-like protease (HAT), sequence (O60235 whole entry): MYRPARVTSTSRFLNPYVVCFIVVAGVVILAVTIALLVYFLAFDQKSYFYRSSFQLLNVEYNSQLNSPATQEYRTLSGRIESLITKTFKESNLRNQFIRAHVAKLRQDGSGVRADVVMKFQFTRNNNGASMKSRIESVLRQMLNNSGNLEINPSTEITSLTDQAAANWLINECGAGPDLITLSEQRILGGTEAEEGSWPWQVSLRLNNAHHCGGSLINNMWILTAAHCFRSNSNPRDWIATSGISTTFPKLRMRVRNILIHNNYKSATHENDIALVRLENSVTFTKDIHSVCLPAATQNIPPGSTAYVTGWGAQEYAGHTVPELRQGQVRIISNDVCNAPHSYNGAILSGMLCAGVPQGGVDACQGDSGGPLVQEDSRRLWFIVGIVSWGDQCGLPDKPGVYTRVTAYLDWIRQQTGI
Method for Chymotrypsin: as §2
Method for ENaC: All determinations were conducted using a TECC24 semiautomated system. Unlike the traditional Ussing chamber assays, where the short circuit current (ISC) is measured as an index of CFTR correction, the TECC-24 assay measures the equivalent current (IEQ).
Method for Matriptase: as §2
Method for Plasmin: as §2
Method for Thrombin: as §2

For “Biotin-PEG-NH—N-(n-guanidino-propyl)-glycine-Gln-Sar-N-(n-guanidino-propyl)-glycine succinimidyl carbamate [NAP1099]”, the extracellular tryptic activity entry in experiment [1] was “reduced extracellular tryptic activity to a similar degree as that of QUB-TL1”. Besides, the k3/Ki was 3.71 (±2.89) × 10^6 M^−1 min^−1 in [2], 8.52 (±9.05) × 10^6 M^−1 min^−1 at Matriptase and 3.80 (±3.16) × 10^6 M^−1 min^−1 with Trypsin. Also, the k3 in experiment [2] was found to be 0.474 min⁻¹; at Matriptase, 0.302 min⁻¹; in the experiment on Trypsin it was 0.354 min⁻¹. The “inhibition of endogenous protease activity, residual activity compared with QUB-TL1” value in experiment [3] is listed as “superior to QUB-TL1”.

On to “Biotin-PEG-NH-Gly-Gly-N-(n-amino-butyl)-glycine succinimidyl carbamate [NKP830]”, for which the Ki at Plasmin (Boc-Val-Leu-Lys-NHMec 50 μM, Mean (±SD)) was found to be 7.2 µM. Besides, the k3/Ki on Plasmin (Mean (±SD)) was 6.2 (±0.9) × 10^4 M^−1 min^−1. This compound also had a k3 on Plasmin (mean) of 0.4 min⁻¹. Besides, on Trypsin, the Ki is 0.22 µM, the k3 is 0.5 min⁻¹, the k3/Ki is recorded as 2.7 (±0.5) × 10^6 M^−1 min^−1 and the “over all second-order rate constant” value is listed as 2.74 (±0.547)×10^6 M^−1·min^−1.

For `C#Cc1cccc(NC(=O)CCCC(=O)NCCCC[C@H](NC(=O)CCCCCNC(=O)CNC(=O)CNC(=O)CN(CCCNC(=N)N)C(=O)ON2C(=O)CCC2=O)C(=O)O)c1` [NAP884, N-6-(1-acetylene-3-amino-phenyl)-di-carboxy-pentane-Lys-NH-Ahx-Gly-Gly-N-(n-guanidino-propyl)-glycine succinimidyl carbamate] (X1-[Gly(N-(CH2)3-guanidino)]GG[Ahx]K([Glutaryl-X3])-OH), on Trypsin, the Ki came out at 0.42 µM, the k3 is 0.528 min⁻¹ and the k3/Ki was 1.34 (±0.351) × 10^6 M^−1 min^−1.

As for “Biotin-PEG-NH-Gly-Gly-N-(benzyl)-glycine succinimidyl carbamate [NFP849]”, in the experiment on Chymotrypsin (Chymotrypsin, Mean (±SD)), the k3/Ki is given as 1.3 (±0.4) × 10^6 M^−1 min^−1. On Chymotrypsin (Chymotrypsin, Suc-Ala-Ala-Pro-Phe-NHMec 50 μM, Mean (±SD)), this compound had a Ki of 0.89 µM. Besides, in the experiment on Chymotrypsin (Chymotrypsin), the k3 was 0.8 min⁻¹. Moreover, the second-order rate constant with Chymotrypsin is 1.28 (±0.442)×10^6 M^−1·min^−1.

Compound “Biotin-PEG-NH—(N-methyl glycyl)-(N-methyl glycyl)-N-(benzyl)-glycine succinimidyl carbamate [CG877]” gave a k3 in the experiment on Chymotrypsin (Chymotrypsin) of 0.7 min⁻¹. Moreover, in the experiment on Chymotrypsin, the second-order rate constant is listed as 2.46 (±0.214)×10^5 M^−1·min^−1.

Consider “Biotin-PEG-NH—(N-benzyl-glycyl)-(D)-phenylalanyl-N-(n-guanidino-propyl)-glycine succinimidyl carbamate [NAT988]”, for which the k3/Ki on Thrombin (Mean (±SD)) was 4.7 (± 1.1) × 10^5 M^−1 min^−1. The same compound registered a k3 on Thrombin (mean) of 0.4 min⁻¹.

Take `N=C(N)NC(=O)c1nc(Cl)c(N)nc1N` [amiloride, reference compound]: the “inhibition of the observable current” value with ENaC (10 μM, added to terminate the experiment, ENaC-expressing FRT cells) is given as greater than 95%.

Consider `N=C(N)NCCCN(CC(=O)NCC(=O)NCC(=O)NCCCCCC(=O)N[C@@H](CCCCNC(=O)CCCC[C@@H]1SC[C@@H]2NC(=O)N[C@@H]21)C(=O)O)C(=O)Oc1c(F)c(F)c(F)c(F)c1F` [NAP966, HO-Lys(biotin)-Ahx-Gly-Gly-N-(n-guanidino-propyl)-glycine pentafluorophenyl carbamate] (X2-[Gly(N-(CH2)3-guanidino)]GG[Ahx]K(Biotin)-OH), for which, on Trypsin, the Ki was 2.1 µM, the k3 was found to be 0.4 min⁻¹ and the k3/Ki is recorded as 1.9 (±0.25) × 10^5 M^−1 min^−1.

On to `N=C(N)NCCCN(CC(=O)NCC(=O)NCC(=O)NCCCCCC(=O)N[C@@H](CCCCNC(=O)CCCC[C@@H]1SC[C@@H]2NC(=O)N[C@@H]21)C(=O)O)C(=O)ON1C(=O)CCC1=O` [NAP897, HO-Lys(Biotin)-Ahx-Gly-Gly-N-(n-guanidino-propyl)-glycine succinimidyl carbamate] (X1-[Gly(N-(CH2)3-guanidino)]GG[Ahx]K(Biotin)-OH), for which, at Trypsin, the Ki was 0.66 µM, the k3 came to 0.7 min⁻¹ and the k3/Ki is listed as 1.3 (±0.4) × 10^6 M^−1 min^−1.

For the compound “Biotin-PEG-NH-Gly-Gly-N-(n-guanidino-propyl)-glycine succinimidyl carbamate [NAP858]”, the extracellular tryptic activity entry in experiment [1] is “reduced extracellular tryptic activity to a similar degree as that of QUB-TL1”. In addition, the “mucociliary clearance (velocity of apically applied microbeads)” value in [4] was determined as 6.83 μm/s. Moreover, in experiment [2], the k3/Ki is listed as 1.50 (±1.76) × 10^6 M^−1 min^−1 and the k3 stood at 0.464 min⁻¹. Also, the “inhibition of endogenous protease activity, residual activity compared with QUB-TL1” value in experiment [3] is listed as “superior to QUB-TL1”. Besides, the “inhibition of hydrolytic action of trypsin-like serine proteases in CF Sol” value in [5] is “complete inhibition”. Besides, in the experiment with ENaC (50 μM, primary CF cultures, over a 90 minute period), the “ENaC activity (reduction of current)” value is 36 μA/cm2. Besides, at Matriptase, the k3/Ki is listed as 1.30 (±0.943) × 10^6 M^−1 min^−1 and the k3 is 0.314 min⁻¹. For the same compound, on Trypsin, the Ki was 0.486 µM, the k3 came to 0.299 min⁻¹, the k3/Ki is 1.95 (±2.62) × 10^6 M^−1 min^−1 and the “over all second-order rate constant” value was 2.60 (±0.884)×10^6 M^−1·min^−1.
